Laboratory results from patent US7435557B2 (priority 2002, dated 2008).

Columns and labels:
Phytophthora infestans = format: cell-based; details: 125 ppm compound solution, 50 μl + 50 μl spore suspension, 18° C., 7 days, 405 nm
GTP cyclohydrolase II = assay: GTP cyclohydrolase activity assay coupled to formate dehydrogenase (NADH formation, absorption at 340 nm); format: biochemical, Ashbya gossypii; details: cell free extract, 2.5 mM GTP, 0.5 mM NAD, 2 units/ml formate dehydrogenase; FIG. 1
Method: Ashbya gossypii cells may be obtained after 2 days from a culture in 3% (w/v) malt extract +0.3% (w/v) difco-soyton, pH 5.6 at 28° C. A cell-free extract can be obtained by mechanical breakage of the cells with a kitchen blender in 50 mM imidazole buffer pH 7 containing 1 mM EDTA-Na salt, 5 mM MgSO4, 10 mM KCl, 5 mM dithiothreitol and 30% (v/v) glycerol and separation of unbroken cells and debris by centrifugation.
(§1) The assay is performed in a suitable buffer e.g. Tris/HCl, pH 7.8 including 1 mM Mg.Cl2, 1 mM DTT, 0.5 mM NAD, 2 units/ml formate dehydrogenase and 2.5 mM GTP Li salt. After the addition of the GTP cyclohydrolase comprising cell free extracts of step A), the reaction was monitored by measuring the absorption at 340 nm.
After dissolving the respective candidate compounds in a suitable solvent e.g. DMSO, an aliquot of the afore made solution is added to the reaction mixture. The enzyme activity of this sample is compared with the activity of a control comprising the pure solvent instead of the candidate compound. The resulting relative activity was calculated as percent inhibition in relation to the sample without the candidate compound.
In FIG. 1, the GTP dependant formation of NADH in the reaction mixture and inhibition by 3-Butyl-10-(3-chlorophenyl)-10H-pyrimido[4,5-b]quinoline-2,4-dione is shown.

Septoria tritici = format: cell-based; details: 18° C., 7 days; 405 nm
formate dehydrogenase = assay: Specificity control: substrate GTP replaced with formic acid; format: biochemical; details: formate instead of GTP; FIG. 2
Method: as §1
To distinguish between the inhibition of GTP cyclohydrolase and formate dehydrogenase in the above-mentioned assay, the subtrate GTP is replaced with formic acid.

Pyricularia oryzae = format: cell-based; details: 125 ppm compound solution, 50 μl + 50 μl spore suspension, 18° C., 7 days, 405 nm

CCCCn1c(=O)nc2n(-c3cccc(Cl)c3)c3ccccc3cc-2c1=O [3-butyl-10-(3-chlorophenyl)-10H-pyrimido[4,5-b]quinoline-2,4-dione]
% growth compared with the 0 ppm control (Phytophthora infestans): 39.9% | inhibition of GTP dependent formation of NADH (GTP cyclohydrolase II): inhibition | % growth compared with the 0 ppm control (Septoria tritici): 0% | inhibition of formate dehydrogenase alone (formate dehydrogenase): No inhibition | % growth compared with the 0 ppm control (Pyricularia oryzae): 47.6%
